Experimental data: patent US6958311B2, “Flowering regulators” (Riken, priority 2000, dated 2005)

System: American Blue (Evolvulus pilosus)
Assay: Flowering of American Blue pots in greenhouse after spraying with brassinazole solution
Format: in vivo
Conditions: sprayed 1000 g/ha on days 0, 7, 14 and 30
Description: In the figure, □ indicates the result of a group treated with the flowering regulator of the present invention (brassinazole), and ∇ indicates the result of an untreated group. The vertical axis indicates a rate of flowering, and the horizontal axis indicates the number of days after the treatment. The arrows indicate the days when the flowering regulator is sprayed. Forty four pots of American Blue (Evolvulus pilosus) of about one month after cutting, which were purchased as-commercial products, were grown in a greenhouse at 22° C. under a natural light condition during the day and an artificial light condition during the night. These pots were divided into two groups, and 22 plants were sprayed with brassinazole [4-(4-chlorophenyl)-2-phenyl-3-(1,2,4-triazoyl)butan-2-ol] solution in an amount of 1000 g/ha on days 0, 7, 14 and 30. The other group (22 plants) was grown under the same conditions except for the treatment with the agent. As the brassinazole solution, 0.5 mg/ml aqueous solution containing 0.1% dimethyl sulfoxide and 0.1% Tween 20 was prepared, and diluted to a 1/10 concentration with water upon use and sprayed by using a spray in the predetermined amount.

CC(O)(c1ccccc1)C(Cc1ccc(Cl)cc1)n1cncn1 (centres unmarked) [brassinazole, 4-(4-chlorophenyl)-2-phenyl-3-(1,2,4-triazoyl)butan-2-ol]
flowering accelerating effect (compared with the untreated plot): clearly demonstrated | flowering (rate of flowering) (greenhouse 22° C., 22 plants, untreated plot: flowering on only one plant on day 35): flowering occurred after flower-bud formation
